Measured values published in article PMC5218480 (PLoS ONE, 2017).

System: MV-4-11 cells
Test: Gene expression microarray analysis (Affymetrix PrimeView) and GSEA
Assay type: cell-based, human
Design: RFU PODN (11730768_x_at) / Fold change /veh PODN (11730768_x_at) / RFU LINC00158 (11744669_a_at) / Fold change /veh LINC00158 (11744669_a_at) / RFU DUSP10 (11751237_a_at) / Fold change /veh DUSP10 (11751237_a_at) / RFU ID3 (11757404_x_at) / Fold change /veh ID3 (11757404_x_at) / RFU PLEKHG5 (11737974_s_at) / Fold change /veh PLEKHG5 (11737974_s_at) / RFU LRRC4B (11730491_at) / Fold change /veh LRRC4B (11730491_at) / RFU GIMAP4 (11747438_a_at) / Fold change /veh GIMAP4 (11747438_a_at) / RFU KRT8 (11758183_x_at) / Fold change /veh KRT8 (11758183_x_at) / RFU CNN1 (11734310_a_at) / Fold change /veh CNN1 (11734310_a_at) / RFU VPS37D (11726825_at) / Fold change /veh VPS37D (11726825_at) / RFU C10orf10 (11716522_x_at) / Fold change /veh C10orf10 (11716522_x_at) / RFU KIR2DL2 /// KIR2DL4 /// KIR2DL5A /// KIR2DL5B /// KIR2DS1 /// KIR2DS2 /// KIR2DS3 /// KIR2DS4 /// KIR3DL3 /// KIR3DL3 /// KIR3DS1 (11738374_at) / Fold change /veh KIR2DL2 /// KIR2DL4 /// KIR2DL5A /// KIR2DL5B /// KIR2DS1 /// KIR2DS2 /// KIR2DS3 /// KIR2DS4 /// KIR3DL3 /// KIR3DL3 /// KIR3DS1 (11738374_at) / RFU C1QL1 (11718748_at) / Fold change /veh C1QL1 (11718748_at) / RFU TMPRSS4 (11747572_a_at) / Fold change /veh TMPRSS4 (11747572_a_at) / RFU HAMP (11756126_x_at) / Fold change /veh HAMP (11756126_x_at) / RFU RNFT2 (11725882_a_at) / Fold change /veh RNFT2 (11725882_a_at) / RFU NR4A2 (11747474_a_at) / Fold change /veh NR4A2 (11747474_a_at) / RFU ABCC12 (11746883_a_at) / Fold change /veh ABCC12 (11746883_a_at) / RFU TMEM136 (11760407_x_at) / Fold change /veh TMEM136 (11760407_x_at) / RFU CLDN22 /// WWC2 (11732394_at) / Fold change /veh CLDN22 /// WWC2 (11732394_at) / RFU HLA-DPB1 (11760878_x_at) / Fold change /veh HLA-DPB1 (11760878_x_at) / RFU SPINT1 (11716480_a_at) / Fold change /veh SPINT1 (11716480_a_at) / RFU GAP43 (11754022_s_at) / Fold change /veh GAP43 (11754022_s_at) / RFU A4GNT (11735810_at) / Fold change /veh A4GNT (11735810_at) / RFU PRB3 (11715151_x_at) / Fold change /veh PRB3 (11715151_x_at) / RFU TUBB4B (11761932_at) / Fold change /veh TUBB4B (11761932_at) / RFU CAPN14 (11732068_a_at) / Fold change /veh CAPN14 (11732068_a_at) / RFU TMCC2 (11721928_a_at) / Fold change /veh TMCC2 (11721928_a_at) / RFU IRGQ (11745062_a_at) / Fold change /veh IRGQ (11745062_a_at) / RFU FAM174B (11720279_a_at) / Fold change /veh FAM174B (11720279_a_at) / RFU TMPRSS4 (11748680_a_at) / Fold change /veh TMPRSS4 (11748680_a_at) / RFU FAM212B (11763350_a_at) / Fold change /veh FAM212B (11763350_a_at) / RFU PLEKHG5 (11743358_a_at) / Fold change /veh PLEKHG5 (11743358_a_at) / RFU ZSCAN30 (11745921_a_at) / Fold change /veh ZSCAN30 (11745921_a_at) / RFU CMKLR1 (11741424_a_at) / Fold change /veh CMKLR1 (11741424_a_at) / RFU LOC101060620 /// MAPK8IP1 (11723275_at) / Fold change /veh LOC101060620 /// MAPK8IP1 (11723275_at) / RFU SPTSSB (11747773_x_at) / Fold change /veh SPTSSB (11747773_x_at) / RFU PRSS12 (11739890_at) / Fold change /veh PRSS12 (11739890_at) / RFU BIN1 (11741810_x_at) / Fold change /veh BIN1 (11741810_x_at) / RFU WNT11 (11732464_a_at) / Fold change /veh WNT11 (11732464_a_at) / RFU C10orf10 (11716521_a_at) / Fold change /veh C10orf10 (11716521_a_at) / RFU C5orf56 (11738089_at) / Fold change /veh C5orf56 (11738089_at) / RFU CYB561 (11721691_x_at) / Fold change /veh CYB561 (11721691_x_at) / RFU ANKRD19P (11752326_a_at) / Fold change /veh ANKRD19P (11752326_a_at) / RFU OR2T12 /// OR2T33 /// OR2T8 (11738714_s_at) / Fold change /veh OR2T12 /// OR2T33 /// OR2T8 (11738714_s_at) / RFU VCAN (11748164_a_at) / Fold change /veh VCAN (11748164_a_at) / RFU JSRP1 (11732532_at) / Fold change /veh JSRP1 (11732532_at) / RFU KRTAP10-11 (11738290_x_at) / Fold change /veh KRTAP10-11 (11738290_x_at) / RFU MYO3A (11730013_a_at) / Fold change /veh MYO3A (11730013_a_at) / RFU EBF3 (11725865_a_at) / Fold change /veh EBF3 (11725865_a_at) / RFU CAMK2N1 (11719241_x_at) / Fold change /veh CAMK2N1 (11719241_x_at) / RFU C5orf56 (11738088_a_at) / Fold change /veh C5orf56 (11738088_a_at) / RFU OLFML3 (11715873_a_at) / Fold change /veh OLFML3 (11715873_a_at) / RFU LOC100653217 /// NTM (11731650_a_at) / Fold change /veh LOC100653217 /// NTM (11731650_a_at) / RFU MAPK11 (11762145_a_at) / Fold change /veh MAPK11 (11762145_a_at) / RFU FIZ1 (11724087_x_at) / Fold change /veh FIZ1 (11724087_x_at) / RFU OASL (11726364_x_at) / Fold change /veh OASL (11726364_x_at) / RFU SOX15 (11748057_x_at) / Fold change /veh SOX15 (11748057_x_at) / RFU CD79A (11719716_a_at) / Fold change /veh CD79A (11719716_a_at) / RFU HIST1H1D (11736915_at) / Fold change /veh HIST1H1D (11736915_at) / RFU CASKIN2 (11723855_a_at) / Fold change /veh CASKIN2 (11723855_a_at) / RFU LOC730098 (11760151_x_at) / Fold change /veh LOC730098 (11760151_x_at) / RFU OR4N2 (11742367_at) / Fold change /veh OR4N2 (11742367_at) / RFU PRRT2 (11749266_a_at) / Fold change /veh PRRT2 (11749266_a_at) / RFU SNX32 (11753110_a_at) / Fold change /veh SNX32 (11753110_a_at) / RFU CDHR5 (11726645_a_at) / Fold change /veh CDHR5 (11726645_a_at) / RFU RCAN1 (11760418_a_at) / Fold change /veh RCAN1 (11760418_a_at) / RFU FAM167A (11723789_a_at) / Fold change /veh FAM167A (11723789_a_at) / RFU FAM26E (11764081_at) / Fold change /veh FAM26E (11764081_at) / RFU ISYNA1 (11749810_s_at) / Fold change /veh ISYNA1 (11749810_s_at) / RFU ACY1 (11761880_at) / Fold change /veh ACY1 (11761880_at) / RFU 11764098_at / Fold change /veh 11764098_at / RFU SAMD14 (11745864_x_at) / Fold change /veh SAMD14 (11745864_x_at) / RFU NPB (11741838_a_at) / Fold change /veh NPB (11741838_a_at) / RFU TMPRSS6 (11731388_a_at) / Fold change /veh TMPRSS6 (11731388_a_at) / RFU KRTAP10-2 (11738614_at) / Fold change /veh KRTAP10-2 (11738614_at) / RFU ARHGAP8 /// PRR5-ARHGAP8 (11727945_x_at) / Fold change /veh ARHGAP8 /// PRR5-ARHGAP8 (11727945_x_at) / RFU KRTAP5-7 /// NADSYN1 (11734609_at) / Fold change /veh KRTAP5-7 /// NADSYN1 (11734609_at) / RFU RASL12 (11751679_a_at) / Fold change /veh RASL12 (11751679_a_at) / RFU CDKN2B (11736163_a_at) / Fold change /veh CDKN2B (11736163_a_at) / RFU PRF1 (11729649_at) / Fold change /veh PRF1 (11729649_at) / RFU, ZNF638 /// ZNF638-IT1 / Fold change vs veh, ZNF638 /// ZNF638-IT1 / RFU, PANK3 / Fold change vs veh, PANK3 / RFU, SH3YL1 / Fold change vs veh, SH3YL1 / RFU, ZEB2 / Fold change vs veh, ZEB2 / RFU, NRIP1 / Fold change vs veh, NRIP1 / RFU, PTTG1IP / Fold change vs veh, PTTG1IP / RFU, CAPN2 / Fold change vs veh, CAPN2 / RFU, MED14 / Fold change vs veh, MED14 / RFU, SNORA58 / Fold change vs veh, SNORA58 / RFU, C1orf63 / Fold change vs veh, C1orf63 / RFU, LRRFIP1 / Fold change vs veh, LRRFIP1 / RFU, NDUFAF7 / Fold change vs veh, NDUFAF7 / RFU, SLC12A2 / Fold change vs veh, SLC12A2 / RFU, IBTK / Fold change vs veh, IBTK / RFU, ESF1 / Fold change vs veh, ESF1 / Fold change vs veh, TMEM50B / RFU, TAOK1 / Fold change vs veh, TAOK1 / RFU, ACBD3 / Fold change vs veh, ACBD3 / RFU, TMA16 / Fold change vs veh, TMA16 / RFU, RWDD3 / Fold change vs veh, RWDD3 / RFU, BCAT1 / Fold change vs veh, BCAT1 / RFU, EDEM3 / Fold change vs veh, EDEM3 / RFU, TMEM33 / Fold change vs veh, TMEM33 / RFU, WDR75 / Fold change vs veh, WDR75 / RFU, AHCTF1 / Fold change vs veh, AHCTF1 / RFU, TFRC / Fold change vs veh, TFRC / RFU, ZDHHC17 / Fold change vs veh, ZDHHC17 / RFU, NOM1 / Fold change vs veh, NOM1 / RFU, ARL8B / Fold change vs veh, ARL8B / RFU, ZBTB11 / Fold change vs veh, ZBTB11 / RFU, TAMM41 / Fold change vs veh, TAMM41 / RFU, KIAA1704 /// LOC100996395 / Fold change vs veh, KIAA1704 /// LOC100996395 / RFU, ING1 / Fold change vs veh, ING1 / RFU, TRMT61B / Fold change vs veh, TRMT61B / RFU, FUBP3 / Fold change vs veh, FUBP3 / RFU, TP53 / Fold change vs veh, TP53 / RFU, TNKS2 / Fold change vs veh, TNKS2 / RFU, ZFP14 / Fold change vs veh, ZFP14 / RFU, ACTR2 / Fold change vs veh, ACTR2 / RFU, PPP3R1 / Fold change vs veh, PPP3R1 / RFU, PIK3R1 / Fold change vs veh, PIK3R1 / RFU, HNRNPA1 / Fold change vs veh, HNRNPA1 / RFU, RNF170 / Fold change vs veh, RNF170 / RFU, ZNF28 / Fold change vs veh, ZNF28 / RFU, RNGTT / Fold change vs veh, RNGTT / RFU, OGT / Fold change vs veh, OGT / RFU, BRD1 / Fold change vs veh, BRD1 / RFU, MARS / Fold change vs veh, MARS / RFU, ZNF655 / Fold change vs veh, ZNF655 / RFU, FAHD1 / Fold change vs veh, FAHD1 / RFU, BDP1 / Fold change vs veh, BDP1 / RFU, LRRCC1 / Fold change vs veh, LRRCC1 / RFU, ARID1A / Fold change vs veh, ARID1A / RFU, ZNF146 / Fold change vs veh, ZNF146 / RFU, ZNF330 / Fold change vs veh, ZNF330 / RFU, GPN3 / Fold change vs veh, GPN3 / RFU, C9orf123 / Fold change vs veh, C9orf123 / RFU, N4BP2L2 / Fold change vs veh, N4BP2L2 / RFU, ARFIP1 / Fold change vs veh, ARFIP1 / RFU, FAM179B / Fold change vs veh, FAM179B / RFU, BCL10 / Fold change vs veh, BCL10 / RFU, UHRF1BP1L / Fold change vs veh, UHRF1BP1L / RFU, BET1 / Fold change vs veh, BET1 / RFU, CNOT2 / Fold change vs veh, CNOT2 / RFU, ZNF268 / Fold change vs veh, ZNF268 / Fold change vs veh, ZNF507 / RFU, DGCR2 / Fold change vs veh, DGCR2 / RFU, WDSUB1 / Fold change vs veh, WDSUB1 / Fold change vs veh, HSP90B1 /// MIR3652 / RFU, ADSS / Fold change vs veh, ADSS / RFU, GK / Fold change vs veh, GK / RFU, ZNF148 / Fold change vs veh, ZNF148 / RFU, TAF9 / Fold change vs veh, TAF9 / RFU, SLC1A5 / Fold change vs veh, SLC1A5 / RFU, SLMO2 / Fold change vs veh, SLMO2 / RFU, ABCC4 / Fold change vs veh, ABCC4 / RFU, LOC101060439 /// RAP1B / Fold change vs veh, LOC101060439 /// RAP1B / RFU, RFX7 / Fold change vs veh, RFX7 / RFU, GTPBP10 / Fold change vs veh, GTPBP10 / RFU, CNEP1R1 / Fold change vs veh, CNEP1R1 / RFU, BIVM-ERCC5 /// ERCC5 / Fold change vs veh, BIVM-ERCC5 /// ERCC5 / RFU, ILF3 / Fold change vs veh, ILF3 / RFU 11762660_at / Fold change /veh 11762660_at / RFU VCAN (11757783_s_at) / Fold change /veh VCAN (11757783_s_at) / RFU DDX43 (11728927_at) / Fold change /veh DDX43 (11728927_at) / RFU KRT8 (11758188_x_at) / Fold change /veh KRT8 (11758188_x_at) / RFU NKD1 (11759106_at) / Fold change /veh NKD1 (11759106_at) / RFU SRD5A1 (11742802_a_at) / Fold change /veh SRD5A1 (11742802_a_at) / RFU TPSAB1 /// TPSB2 (11721975_s_at) / Fold change /veh TPSAB1 /// TPSB2 (11721975_s_at) / RFU GSTM3 (11746129_a_at) / Fold change /veh GSTM3 (11746129_a_at) / RFU IL23R (11737362_x_at) / Fold change /veh IL23R (11737362_x_at) / RFU TMEM51 (11727254_a_at) / Fold change /veh TMEM51 (11727254_a_at) / RFU PIWIL2 (11732686_x_at) / Fold change /veh PIWIL2 (11732686_x_at) / RFU ORM1 (11744905_x_at) / Fold change /veh ORM1 (11744905_x_at) / RFU CCDC152 (11743942_at) / Fold change /veh CCDC152 (11743942_at) / RFU ECM1 (11717891_a_at) / Fold change /veh ECM1 (11717891_a_at) / RFU IL23R (11748794_a_at) / Fold change /veh IL23R (11748794_a_at) / RFU TNFAIP8L3 (11732012_x_at) / Fold change /veh TNFAIP8L3 (11732012_x_at) / RFU MBOAT4 (11741988_at) / Fold change /veh MBOAT4 (11741988_at) / RFU 11764193_at / Fold change /veh 11764193_at / RFU TMEM53 (11763286_at) / Fold change /veh TMEM53 (11763286_at) / RFU MAGEB2 (11727129_at) / Fold change /veh MAGEB2 (11727129_at) / RFU TMEM200A (11744735_a_at) / Fold change /veh TMEM200A (11744735_a_at) / RFU CCDC152 (11751479_a_at) / Fold change /veh CCDC152 (11751479_a_at) / RFU FAM211A (11726209_a_at) / Fold change /veh FAM211A (11726209_a_at) / RFU RGS16 (11746705_a_at) / Fold change /veh RGS16 (11746705_a_at) / RFU VCAN (11755009_s_at) / Fold change /veh VCAN (11755009_s_at) / RFU RHOB (11743442_s_at) / Fold change /veh RHOB (11743442_s_at) / RFU RGS16 (11720943_a_at) / Fold change /veh RGS16 (11720943_a_at) / RFU RGS16 (11720944_at) / Fold change /veh RGS16 (11720944_at) / RFU, VPS4B / Fold change vs veh, VPS4B / RFU, CREB1 / Fold change vs veh, CREB1 / RFU, DNAJC13 / Fold change vs veh, DNAJC13 / RFU, GNAQ / Fold change vs veh, GNAQ / RFU, CDK5R1 / Fold change vs veh, CDK5R1 / RFU, ZRANB3 / Fold change vs veh, ZRANB3 / RFU, CUL4A / Fold change vs veh, CUL4A / RFU, CCNY / Fold change vs veh, CCNY / RFU, UFL1 / Fold change vs veh, UFL1 / RFU, COG3 / Fold change vs veh, COG3 / RFU, DIAPH2 / Fold change vs veh, DIAPH2 / RFU, SKA2 / Fold change vs veh, SKA2 / RFU, AFF3 / Fold change vs veh, AFF3 / RFU, LMF1 / Fold change vs veh, LMF1 / RFU, IPO11 / Fold change vs veh, IPO11 / RFU, DFFB / Fold change vs veh, DFFB / RFU, FOXP1 / Fold change vs veh, FOXP1 / RFU, CARD8 / Fold change vs veh, CARD8 / RFU, STRN3 / Fold change vs veh, STRN3 / RFU, ADK / Fold change vs veh, ADK / RFU, RASSF2 / Fold change vs veh, RASSF2 / RFU, WIPF1 / Fold change vs veh, WIPF1 / RFU, LARP1B / Fold change vs veh, LARP1B / RFU, RASA1 / Fold change vs veh, RASA1 / RFU, RB1 / Fold change vs veh, RB1 / RFU, PPFIA1 / Fold change vs veh, PPFIA1 / RFU, MAT2A / Fold change vs veh, MAT2A / RFU, CCT5 / Fold change vs veh, CCT5 / RFU, WDR92 / Fold change vs veh, WDR92 / RFU, CUX1 / Fold change vs veh, CUX1 / RFU, TTC7A / Fold change vs veh, TTC7A / RFU, TMEM135 / Fold change vs veh, TMEM135 / RFU, DEPTOR / Fold change vs veh, DEPTOR / RFU, CPM / Fold change vs veh, CPM / RFU, DNAJB6 / Fold change vs veh, DNAJB6 / RFU, CACNA2D3 / Fold change vs veh, CACNA2D3 / RFU, DTX4 / Fold change vs veh, DTX4 / RFU, TFCP2 / Fold change vs veh, TFCP2 / RFU, GMCL1 /// GMCL1P1 / Fold change vs veh, GMCL1 /// GMCL1P1 / RFU, AEBP2 / Fold change vs veh, AEBP2 / RFU, SNHG1 /// SNORD22 /// SNORD25 /// SNORD26 /// SNORD27 /// SNORD28 /// SNORD29 /// SNORD31 / Fold change vs veh, SNHG1 /// SNORD22 /// SNORD25 /// SNORD26 /// SNORD27 /// SNORD28 /// SNORD29 /// SNORD31 / Fold change (Aza/veh), C12orf56 (ProbeSet 11735607_a_at) / Fold change (ACY-1035/veh), C12orf56 (ProbeSet 11735607_a_at) / Fold change (Aza/veh), FGFR1OP (ProbeSet 11751329_s_at) / Fold change (ACY-1035/veh), FGFR1OP (ProbeSet 11751329_s_at) / Fold change (Aza/veh), VPS36 (ProbeSet 11739960_a_at) / Fold change (ACY-1035/veh), VPS36 (ProbeSet 11739960_a_at) / RFU SYPL1 (11715823_x_at) / Fold change /veh SYPL1 (11715823_x_at) / RFU IGFBP7 (11715501_s_at) / Fold change /veh IGFBP7 (11715501_s_at) / RFU REEP3 (11722064_at) / Fold change /veh REEP3 (11722064_at) / RFU IGLL1 (11728026_x_at) / Fold change /veh IGLL1 (11728026_x_at): dose or concentration left out as unconfirmed
Conditions: ProbeSet 11756954_s_at; LIST B

Compound: Nc1ccc(-c2cccs2)cc1NC(=O)c1ccc2c(c1)cc(C1CC1)n2CCN1CCOCC1 [ACY-1035]
- Fold change vs veh, ZEB2: 0.85
